Laboratory results: patent US20040002425A1, “Triketone derivatives and herbicides” (Idemitsu Kosan Co., Ltd., priority 1998, published 2004)

System: Transplanted paddy rice plant
Test: Biological Test 1 (treatment on the 3rd day after transplantation): chemical injury to paddy rice
Type: in vivo
Set-up: scale not given here
Details: Treatment performed 3 days after transplantation
Method: (1) Preparation of Herbicide
Talc (57 parts by weight) and bentonite (40 parts by weight), both serving as carriers, and sodium alkylbenzenesulfate (3 parts by weight) serving as a surfactant were homogeneously ground and mixed to thereby obtain a carrier for water-dispersible powder.
Subsequently, to the water-dispersible powder (90 parts by weight), the triketone derivative (compound No. A-1) produced in Example I-1 (10 parts by weight) was added, and the resultant mixture was homogeneously ground and mixed to thereby obtain a herbicide.
(i) Biological Test 1 (Soaking in Water/Treatment on the 3rd Day After Transplantation)
A Wagner pot (1/2000 are) was filled with paddy soil, and seeds of barnyard grass were planted on the surface layer of the soil, and further, rice seedlings grown to the 2.5-leaf stage were transplanted.
Subsequently, water was poured in the pot to a height of 3 cm above the soil surface, and placed in a greenhouse where the temperature was maintained at 20-25° C., to thereby grow the plant under suitable conditions.
On the 3rd day after transplantation, the herbicide prepared in (1) above was applied to the plant in a predetermined amount. On the 30th day after treatment with the herbicide, weed-killing ratio, herbicidal effect, and extent of chemical injury to paddy rice were examined.
In Biological tests 1 and 2, herbicidal effect and extent of chemical injury were evaluated according to the below-described standards.
3) Chemical Injury to Paddy Rice
Chemical injury to paddy rice was evaluated according to the following criteria.

[1] = dose 100 g/ha, examined on the 30th day after treatment
[2] = dose 200 g/ha, examined on the 30th day after treatment

SMILES	Chemical injury, Transplanted paddy rice plant (dose 100 g/ha)	Chemical injury, Transplanted paddy rice plant (dose 200 g/ha)	Chemical injury, Transplanted paddy rice plant [1]	Chemical injury, Transplanted paddy rice plant [2]
CC(=O)c1ccc(S(=O)(=O)C2=C(C(=O)c3ccc4c(c3Cl)CCS4(=O)=O)C(=O)CCC2)cc1 [B-46]	0	0		
CO/N=C1\CCS(=O)(=O)c2ccc(C(=O)C3=C(S(=O)(=O)c4ccccc4)CCCC3=O)c(C)c21 [B-75]	0	1		
CCS(=O)(=O)C1=C(C(=O)c2ccc3c(c2Cl)CCS3(=O)=O)C(=O)CCC1 [B-27]	0	0		
CO/N=C1\CCS(=O)(=O)c2c(C)cc(C(=O)C3=C(Cl)CCCC3=O)c(C)c21 [B-54]	1	4		
Cc1c(C(=O)C2=C(O)CCCC2=O)ccc2c1CCS2(=O)=O [A-2, 4-methyl-5-(1,3-dioxocyclohexan-2-yl)carbonyl-2,3-dihydrobenzothiophene-1,1-dioxide]			0	0
CO/N=C1\CCS(=O)(=O)c2c(C)cc(C(=O)C3=C(N(C)C)CCCC3=O)c(C)c21 [B-55, 4-methoxyimino-5,8-dimethyl-6-(3-dimethylamino-1-oxocyclohexan-2-yl)carbonylthiochroman-1,1-1,1-dioxide]	0	0		
Cc1c(C(=O)C2=C(Cl)CCCC2=O)ccc2c1C(=O)C(C)(C)CS2(=O)=O [B-63]	3	5		
N#Cc1c(C(=O)C2C(=O)CCCC2=O)ccc2c1CCS2(=O)=O [A-21, 4-cyano-5-(1,3-dioxocyclohexan-2-yl)carbonyl-2,3-dihydrobenzothiophene-1,1-dioxide]			0	0
CON(C)C1=C(C(=O)c2ccc3c(c2Cl)CCS3(=O)=O)C(=O)CCC1 [B-12, 4-chloro-5-[3-(N-methoxymethyl)amino-1-oxocyclohexan-2-yl]carbonyl-2,3-dihydrobenzothiophene-1,1-dioxide]	0	1		
O=C1CCCC(SCc2ccccc2)=C1C(=O)c1ccc2c(c1Cl)CCS2(=O)=O [B-11]	0	0		
CO/N=C1\CCS(=O)(=O)c2ccc(C(=O)C3=C(SC)CCCC3=O)c(C)c21 [B-73]	0	0		
Cc1cc(C(=O)C2=C(SCc3ccccc3)CCCC2=O)c(C)c2c1S(=O)(=O)CCC2OC(C)C (centres unmarked) [B-70]	0	0		
CCSC1=C(C(=O)c2ccc3c(c2Cl)CCS3(=O)=O)C(=O)CCC1 [B-2]	0	0		
CSc1c(C(=O)C2=C(O)CCCC2=O)ccc2c1CCS2(=O)=O [A-6, 4-methylthio-5-(1,3-dioxocyclohexan-2-yl)carbonyl-2,3-dihydrobenzothiophene-1,1-dioxide]			1	3
O=C1CCCC(S(=O)(=O)c2ccccc2O)=C1C(=O)c1ccc2c(c1Cl)CCS2(=O)=O [B-49]	0	0		
Cc1cccc(S(=O)(=O)C2=C(C(=O)c3ccc4c(c3Cl)CCS4(=O)=O)C(=O)CCC2)c1 [B-33]	0	0		
CC1CC(=O)C(C(=O)c2ccc3c(c2Cl)CCS3(=O)=O)=C(O)C1 (centres unmarked) [A-12, 4-chloro-5-(5-methyl-1,3-dioxocyclohexan-2-yl)carbonyl-2,3-dihydrobenzothiophene-1,1-dioxide]			1	2
Cc1c(C(=O)C2=C(Sc3ccc(Cl)cc3)CCCC2=O)ccc2c1C(=O)C(C)(C)CS2(=O)=O [B-64, 3,3,5-trimethyl-6-[3-(4-chloro)thio-1-oxocyclohexan-2-yl]carbonylthiochroman-4-one-1,1-dioxide]	2	5		
COc1c(C(=O)C2=C(O)CCCC2=O)ccc2c1CCS2(=O)=O [A-5, 4-methoxy-5-(1,3-dioxocyclohexan-2-yl)carbonyl-2,3-dihydrobenzothiophene-1,1-dioxide]			0	0
CCCCSC1=C(C(=O)c2ccc3c(c2Cl)CCS3(=O)=O)C(=O)CCC1 [B-10]	0	0		
CC(C)c1ccccc1S(=O)(=O)C1=C(C(=O)c2ccc3c(c2Cl)CCS3(=O)=O)C(=O)CCC1 [B-36]	0	0		
O=C1CCCC(S(=O)(=O)c2ccc(Br)cc2)=C1C(=O)c1ccc2c(c1Cl)CCS2(=O)=O [B-42]	0	0		
Cc1cc(C(=O)C2=C(O)CCCC2=O)c(C)c2c1S(=O)(=O)CC2 [A-4, 4,7-dimethyl-5-(1,3-dioxocyclohexan-2-yl)carbonyl-2,3-dihydrobenzothiophene-1,1-dioxide]			0	1
CC(C)S(=O)(=O)C1=C(C(=O)c2ccc3c(c2Cl)CCS3(=O)=O)C(=O)CCC1 [B-29]	0	0		
CO/N=C1\CCS(=O)(=O)c2ccc(C(=O)C3=C(N(C)OC)CCCC3=O)c(C)c21 [B-76, 4-methoxyimino-5-methyl-6-[3-(N-methoxymethyl)amino-1-oxocyclohexan-2-yl]carbonylthiochroman-1,1-dioxide]	0	1		
Cc1cc(C(=O)C2=C(O)CCC(C)(C)C2=O)c(Cl)c2c1S(=O)(=O)CC2 [A-11, 4-chloro-7-methyl-5-(4,4-dimethyl-1,3-dioxocyclohexan-2-yl)carbonyl-2,3-dihydrobenzothiophene-1,1-dioxide]			1	3
COc1ccc(S(=O)(=O)C2=C(C(=O)c3ccc4c(c3Cl)CCS4(=O)=O)C(=O)CCC2)cc1 [B-37]	0	0		
O=C1CCCC(S(=O)(=O)c2ccccc2Cl)=C1C(=O)c1ccc2c(c1Cl)CCS2(=O)=O [B-35]	0	0		
